# Activity calls are given as the source filed them.
# How the values were obtained:
# [1] = HEK-293T viability loss after treatment – luminescence, T-cell screen hits, cytotoxicity control for TCR NF-kB inhibitor project, dose response (AID 489026); format: functional, cell-based;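 also: cells exposed to compound about 14 hours before the viability readout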
# [2] = molecular target: T1, Sentrin-specific protease 6 (Homo sapiens, UniProt Q9GZR1); format: functional;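 also: Luminescence-based dose-response confirmatory assay of SENP6 inhibition, following up an ultra-high-throughput screen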
# T1 sequence (Q9GZR1 whole entry): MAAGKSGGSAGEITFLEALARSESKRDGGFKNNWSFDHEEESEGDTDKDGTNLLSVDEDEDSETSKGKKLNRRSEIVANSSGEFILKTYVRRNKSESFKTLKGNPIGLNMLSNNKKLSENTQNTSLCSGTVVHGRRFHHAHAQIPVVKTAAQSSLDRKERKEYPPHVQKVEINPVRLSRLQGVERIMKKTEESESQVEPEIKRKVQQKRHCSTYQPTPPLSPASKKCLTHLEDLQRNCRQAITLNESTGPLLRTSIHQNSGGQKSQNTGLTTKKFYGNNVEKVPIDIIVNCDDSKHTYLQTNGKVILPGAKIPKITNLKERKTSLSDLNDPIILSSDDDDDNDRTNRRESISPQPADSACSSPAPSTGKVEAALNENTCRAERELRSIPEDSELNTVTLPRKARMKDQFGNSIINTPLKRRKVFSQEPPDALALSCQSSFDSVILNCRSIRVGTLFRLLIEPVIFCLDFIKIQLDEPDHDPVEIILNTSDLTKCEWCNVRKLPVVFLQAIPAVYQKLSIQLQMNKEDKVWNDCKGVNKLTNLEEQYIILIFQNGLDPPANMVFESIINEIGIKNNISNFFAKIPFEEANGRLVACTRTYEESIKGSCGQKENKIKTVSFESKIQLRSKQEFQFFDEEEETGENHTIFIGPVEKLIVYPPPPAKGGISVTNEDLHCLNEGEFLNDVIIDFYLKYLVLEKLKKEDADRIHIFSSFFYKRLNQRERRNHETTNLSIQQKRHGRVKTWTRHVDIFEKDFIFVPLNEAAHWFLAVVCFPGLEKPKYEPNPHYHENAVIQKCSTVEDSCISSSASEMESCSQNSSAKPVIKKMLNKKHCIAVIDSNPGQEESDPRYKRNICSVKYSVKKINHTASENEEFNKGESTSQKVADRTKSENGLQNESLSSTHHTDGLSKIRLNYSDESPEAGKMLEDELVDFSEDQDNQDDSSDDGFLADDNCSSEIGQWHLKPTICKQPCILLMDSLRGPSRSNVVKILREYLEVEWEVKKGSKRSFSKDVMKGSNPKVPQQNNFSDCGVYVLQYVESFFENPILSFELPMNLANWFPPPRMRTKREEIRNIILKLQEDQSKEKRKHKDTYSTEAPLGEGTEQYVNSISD
# [3] = molecular target: T2, Sentrin-specific protease 7 (Homo sapiens, UniProt Q9BQF6); format: functional;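 also: Luminescence-based dose-response confirmation of ultra-high-throughput screening hits, measuring inhibition of SENP7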
# T2 sequence (Q9BQF6 whole entry): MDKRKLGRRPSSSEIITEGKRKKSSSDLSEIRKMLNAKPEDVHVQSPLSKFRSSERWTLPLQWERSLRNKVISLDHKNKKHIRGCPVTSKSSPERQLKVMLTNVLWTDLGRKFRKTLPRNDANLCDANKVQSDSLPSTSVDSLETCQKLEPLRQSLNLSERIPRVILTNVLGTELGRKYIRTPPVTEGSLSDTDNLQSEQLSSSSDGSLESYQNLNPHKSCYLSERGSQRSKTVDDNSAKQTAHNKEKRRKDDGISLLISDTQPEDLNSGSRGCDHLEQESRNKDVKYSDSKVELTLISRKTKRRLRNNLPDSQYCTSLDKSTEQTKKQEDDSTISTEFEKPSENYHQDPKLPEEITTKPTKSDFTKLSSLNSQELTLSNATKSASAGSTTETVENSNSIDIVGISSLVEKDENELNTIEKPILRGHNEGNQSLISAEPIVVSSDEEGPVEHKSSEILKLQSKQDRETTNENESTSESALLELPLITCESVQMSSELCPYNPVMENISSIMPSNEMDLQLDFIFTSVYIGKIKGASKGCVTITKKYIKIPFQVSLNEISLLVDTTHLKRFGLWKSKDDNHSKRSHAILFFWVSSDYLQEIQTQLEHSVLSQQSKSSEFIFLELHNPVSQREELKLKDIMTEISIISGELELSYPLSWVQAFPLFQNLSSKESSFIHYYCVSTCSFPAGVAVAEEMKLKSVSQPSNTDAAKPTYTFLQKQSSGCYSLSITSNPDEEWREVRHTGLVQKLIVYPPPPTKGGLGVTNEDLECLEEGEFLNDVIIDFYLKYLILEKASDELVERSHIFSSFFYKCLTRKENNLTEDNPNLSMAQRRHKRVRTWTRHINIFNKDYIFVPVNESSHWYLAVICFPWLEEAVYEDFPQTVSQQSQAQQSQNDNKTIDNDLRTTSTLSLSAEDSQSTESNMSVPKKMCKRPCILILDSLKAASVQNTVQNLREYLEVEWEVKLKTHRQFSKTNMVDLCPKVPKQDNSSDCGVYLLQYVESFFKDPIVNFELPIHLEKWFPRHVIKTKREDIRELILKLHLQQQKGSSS
# [4] = molecular target: T3, Sentrin-specific protease 8 (Homo sapiens, UniProt Q96LD8); format: functional;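 also: luminescence read-out of SENP8 inhibition, dose-response confirmation following an ultra-high-throughput screen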
# T3 sequence (Q96LD8 whole entry): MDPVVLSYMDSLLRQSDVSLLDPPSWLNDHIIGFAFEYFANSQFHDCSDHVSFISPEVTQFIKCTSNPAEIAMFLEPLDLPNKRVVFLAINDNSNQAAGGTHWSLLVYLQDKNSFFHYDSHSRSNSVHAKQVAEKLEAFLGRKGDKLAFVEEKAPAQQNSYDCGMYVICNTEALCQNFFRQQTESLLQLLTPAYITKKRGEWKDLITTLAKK
# Caspase-3 = molecular target: T4, Caspase-3 (Homo sapiens, UniProt P42574); format: functional;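 also: Dose-response selectivity test against caspase-3 for candidate inhibitors of sentrin-specific proteases (SENPs)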
# T4 sequence (P42574 whole entry): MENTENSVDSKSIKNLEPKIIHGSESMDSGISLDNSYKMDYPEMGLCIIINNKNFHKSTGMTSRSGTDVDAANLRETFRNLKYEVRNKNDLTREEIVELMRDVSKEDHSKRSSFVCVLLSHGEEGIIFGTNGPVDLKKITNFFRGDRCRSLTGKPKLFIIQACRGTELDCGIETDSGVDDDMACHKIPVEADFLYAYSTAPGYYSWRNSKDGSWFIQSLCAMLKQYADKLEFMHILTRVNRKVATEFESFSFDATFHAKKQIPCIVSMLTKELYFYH
# [5] = molecular target: T5, Microphthalmia-associated transcription factor (Homo sapiens, UniProt O75030); experiment: reducers of TRPM1 reporter luminescence, concentration series – cell-based, SK-MEL-5, cherry-picked, set 3, MITF inhibitor project, dose response (AID 493073); format: functional;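 also: SK-MEL-5 melanoma cells with luciferase driven by the MITF target TRPM1 promoter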
# T5 sequence (O75030 whole entry): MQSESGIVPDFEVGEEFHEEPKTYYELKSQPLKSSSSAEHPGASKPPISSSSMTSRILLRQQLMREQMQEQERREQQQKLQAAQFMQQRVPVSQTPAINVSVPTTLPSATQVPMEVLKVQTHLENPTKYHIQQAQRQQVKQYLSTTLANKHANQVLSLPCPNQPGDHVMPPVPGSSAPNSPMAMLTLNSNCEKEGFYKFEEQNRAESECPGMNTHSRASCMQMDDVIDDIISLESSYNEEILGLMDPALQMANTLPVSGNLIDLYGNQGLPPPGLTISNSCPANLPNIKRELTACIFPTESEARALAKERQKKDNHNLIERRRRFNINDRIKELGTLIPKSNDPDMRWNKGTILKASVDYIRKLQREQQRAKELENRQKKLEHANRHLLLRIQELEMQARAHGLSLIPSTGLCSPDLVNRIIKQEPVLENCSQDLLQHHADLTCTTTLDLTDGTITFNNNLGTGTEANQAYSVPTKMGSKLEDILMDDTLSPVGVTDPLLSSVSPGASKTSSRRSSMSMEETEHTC
# [6] = blockade of melanocortin 4 receptor signaling – cell-based, plate reader, cherry pick, counter-screen for LGR2 antagonist project, dose response (AID 743444); format: functional;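 also: transfected HEK 293 cells stimulated with alpha-MSH peptide; potency of inhibitors of the alpha-MSH evoked signal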
# [7] = blockers of bursicon-stimulated LGR2 cAMP reporter – cell-based, HEK293, CRE-luciferase reporter, cherry pick, set 2, dose response (AID 743343); format: functional;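 also: transfected cells were stimulated with diluted bursicon conditioned medium after compound addition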
# Coagulation factor XII = molecular target: T6, Coagulation factor XII (Homo sapiens, UniProt P00748); format: functional;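 also: activated factor XIIa alpha cleaving a fluorogenic AMC peptide substrate; inhibitor potency from loss of enzyme activity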
# T6 sequence (P00748 whole entry): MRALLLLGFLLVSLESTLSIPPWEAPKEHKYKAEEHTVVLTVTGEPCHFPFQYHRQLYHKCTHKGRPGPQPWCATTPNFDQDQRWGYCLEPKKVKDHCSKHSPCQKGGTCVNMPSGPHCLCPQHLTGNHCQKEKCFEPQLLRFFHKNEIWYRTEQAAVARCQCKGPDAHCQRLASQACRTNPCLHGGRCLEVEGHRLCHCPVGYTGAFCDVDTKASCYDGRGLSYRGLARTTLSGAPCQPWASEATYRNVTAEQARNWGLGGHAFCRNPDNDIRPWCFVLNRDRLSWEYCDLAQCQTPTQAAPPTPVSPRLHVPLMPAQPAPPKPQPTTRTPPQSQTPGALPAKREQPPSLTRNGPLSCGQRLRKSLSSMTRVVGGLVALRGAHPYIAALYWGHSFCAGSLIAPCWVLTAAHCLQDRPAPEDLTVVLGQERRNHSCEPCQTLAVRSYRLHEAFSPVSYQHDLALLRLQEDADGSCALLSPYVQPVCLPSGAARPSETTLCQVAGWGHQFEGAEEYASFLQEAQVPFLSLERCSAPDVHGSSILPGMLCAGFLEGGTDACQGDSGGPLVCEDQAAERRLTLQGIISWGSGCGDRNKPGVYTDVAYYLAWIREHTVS
# Fatty acid synthase [8] = molecular target: T7, Fatty acid synthase (Homo sapiens, UniProt P49327); experiment: inhibition of human FAS-TE enzyme activity – biochemical, kinetic fluorescence intensity, dose response (AID 624326); format: functional;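 also: rate of fluorescence rise from hydrolysis of a fluorogenic O-methyl fluorescein ester substrate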
# Fatty acid synthase [9] = molecular target: T7, Fatty acid synthase; experiment: inhibition of human FAS-TE enzyme activity – biochemical, endpoint fluorescence intensity, uHTS hits, dose response (AID 624327); format: functional;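 also: fluorescence from hydrolysis of an O-methyl fluorescein acyl ester substrate by the enzyme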
# cells [10] = format: functional, cell-based
# cells [11] = format: functional, cell-based; remark: listed apart in the source
# T7 sequence (P49327 whole entry): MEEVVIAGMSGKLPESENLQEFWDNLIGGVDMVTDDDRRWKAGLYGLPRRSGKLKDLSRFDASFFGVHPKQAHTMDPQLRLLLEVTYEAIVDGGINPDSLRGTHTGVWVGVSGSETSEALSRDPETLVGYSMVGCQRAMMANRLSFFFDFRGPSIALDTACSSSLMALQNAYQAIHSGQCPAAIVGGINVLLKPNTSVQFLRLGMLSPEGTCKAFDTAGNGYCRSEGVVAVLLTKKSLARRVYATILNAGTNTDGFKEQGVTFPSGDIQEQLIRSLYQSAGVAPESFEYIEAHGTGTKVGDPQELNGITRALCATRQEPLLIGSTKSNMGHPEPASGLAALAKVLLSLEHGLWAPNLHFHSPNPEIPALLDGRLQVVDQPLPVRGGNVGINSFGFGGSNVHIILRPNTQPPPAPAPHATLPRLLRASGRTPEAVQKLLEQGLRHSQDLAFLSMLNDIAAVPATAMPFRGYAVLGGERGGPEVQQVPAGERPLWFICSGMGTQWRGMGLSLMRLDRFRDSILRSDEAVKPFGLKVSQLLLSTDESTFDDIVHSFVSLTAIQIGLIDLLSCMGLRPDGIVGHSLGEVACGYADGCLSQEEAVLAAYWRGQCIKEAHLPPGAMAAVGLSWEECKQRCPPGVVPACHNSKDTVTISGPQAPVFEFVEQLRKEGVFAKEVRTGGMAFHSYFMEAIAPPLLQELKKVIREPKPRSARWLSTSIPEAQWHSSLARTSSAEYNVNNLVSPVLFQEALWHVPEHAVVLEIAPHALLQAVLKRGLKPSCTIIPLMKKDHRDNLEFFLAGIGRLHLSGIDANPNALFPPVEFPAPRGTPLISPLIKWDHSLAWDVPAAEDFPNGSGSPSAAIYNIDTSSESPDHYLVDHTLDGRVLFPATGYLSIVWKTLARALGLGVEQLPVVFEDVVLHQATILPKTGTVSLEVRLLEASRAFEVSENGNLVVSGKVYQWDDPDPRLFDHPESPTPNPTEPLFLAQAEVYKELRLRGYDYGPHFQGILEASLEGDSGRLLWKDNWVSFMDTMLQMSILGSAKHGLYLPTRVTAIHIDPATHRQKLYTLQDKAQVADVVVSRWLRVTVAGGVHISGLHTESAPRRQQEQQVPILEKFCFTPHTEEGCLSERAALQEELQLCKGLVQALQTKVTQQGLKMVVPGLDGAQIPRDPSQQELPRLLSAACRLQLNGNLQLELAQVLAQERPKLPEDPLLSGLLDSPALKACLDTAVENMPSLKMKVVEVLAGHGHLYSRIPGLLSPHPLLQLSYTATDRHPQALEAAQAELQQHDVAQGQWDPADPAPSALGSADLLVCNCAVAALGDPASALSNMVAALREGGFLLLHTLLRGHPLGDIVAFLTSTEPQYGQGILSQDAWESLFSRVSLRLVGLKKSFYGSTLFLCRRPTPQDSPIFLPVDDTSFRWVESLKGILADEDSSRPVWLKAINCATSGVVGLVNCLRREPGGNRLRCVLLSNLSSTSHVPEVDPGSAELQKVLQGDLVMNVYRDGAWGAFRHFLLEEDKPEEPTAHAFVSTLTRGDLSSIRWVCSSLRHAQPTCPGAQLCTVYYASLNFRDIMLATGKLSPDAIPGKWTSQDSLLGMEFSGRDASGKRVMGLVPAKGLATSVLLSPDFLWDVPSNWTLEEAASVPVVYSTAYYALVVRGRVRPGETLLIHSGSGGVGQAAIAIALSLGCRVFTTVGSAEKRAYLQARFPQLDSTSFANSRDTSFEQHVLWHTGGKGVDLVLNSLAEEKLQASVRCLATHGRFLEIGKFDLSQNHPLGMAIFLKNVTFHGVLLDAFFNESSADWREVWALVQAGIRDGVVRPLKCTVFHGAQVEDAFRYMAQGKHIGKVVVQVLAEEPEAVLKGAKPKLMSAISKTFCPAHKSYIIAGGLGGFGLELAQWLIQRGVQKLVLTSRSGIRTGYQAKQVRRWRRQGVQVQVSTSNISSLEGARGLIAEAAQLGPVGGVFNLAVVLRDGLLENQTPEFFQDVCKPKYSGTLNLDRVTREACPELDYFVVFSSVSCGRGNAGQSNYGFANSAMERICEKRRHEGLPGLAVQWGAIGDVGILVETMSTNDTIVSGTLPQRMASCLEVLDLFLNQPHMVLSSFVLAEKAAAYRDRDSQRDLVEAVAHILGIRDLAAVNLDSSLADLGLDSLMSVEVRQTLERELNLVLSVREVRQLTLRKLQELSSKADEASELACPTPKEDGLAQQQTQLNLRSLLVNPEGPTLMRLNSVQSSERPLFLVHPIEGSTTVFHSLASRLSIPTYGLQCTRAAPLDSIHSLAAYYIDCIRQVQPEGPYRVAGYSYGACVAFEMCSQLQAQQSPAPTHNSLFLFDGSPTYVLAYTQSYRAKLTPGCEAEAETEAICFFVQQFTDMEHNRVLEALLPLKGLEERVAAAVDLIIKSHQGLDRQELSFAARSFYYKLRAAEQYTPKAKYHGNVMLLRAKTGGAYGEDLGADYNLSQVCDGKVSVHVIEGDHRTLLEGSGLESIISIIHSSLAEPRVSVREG
Structure (SMILES),IC50 [2],IC50 [3],IC50 [4],IC50 (Caspase-3),other results
COc1ccc(NC(=O)Cn2nnc(-c3ccccc3NS(=O)(=O)c3ccc(OC)cc3)n2)cc1,–,–,–,–,IC50 [1]: > 80 µM (inactive)
O=Nc1ccc(NOC(=O)c2ccccc2)cc1,21.7 µM (active),8.98 µM (active),> 100 µM (inactive),48.4 µM (active),–
O=C(O)c1ccc(Nc2nc3c(s2)CCCC3)cc1,–,–,–,–,AC50 [5]: 6.49 µM (active); AC50 [6]: 4.75 µM (active); AC50 [7]: 4.2 µM (active)
Cc1nonc1OC(C)CNCCNc1ccc([N+](=O)[O-])cc1 (configuration not stated),–,–,–,–,IC50 (Coagulation factor XII): > 50 µM (inactive)
O=C(C1CC(c2ccc(Cl)c(Cl)c2)=NO1)N1CCC2(CC1)OCCO2 (configuration not stated),–,–,–,–,IC50 (Coagulation factor XII): > 50 µM (inactive); IC50 (Fatty acid synthase [8]): 5.55 µM (active); IC50 (Fatty acid synthase [9]): 7.22 µM (active)
CCc1ccc(/C=N/NC(=O)c2cc(C3CC3)nc3ccccc23)s1,–,–,–,–,IC50 [1]: > 80 µM (inactive)
COc1cccc(/N=C/c2c(O)oc3ccccc3c2=O)c1,> 100 µM (inactive),14.2 µM (active),> 100 µM (inactive),> 100 µM (inactive),–
O=[N+]([O-])c1ccc(N/N=C/c2ccccc2O)cc1,22.1 µM (active),4.9 µM (active),55.1 µM (active),31.1 µM (active),EC50 (cells [10]): 10.4 µM (active); EC50 (cells [11]): > 350 µM (not active)
COc1ccc(/C=C2\CCc3ccccc3C2=O)cc1OC,15.8 µM (active),7.94 µM (active),22.1 µM (active),27.3 µM (active),–
